Assay results: publication PMC11001709, “Anti-toxoplasma activity and DNA-binding of copper(II) and zinc(II) coordination compounds with 5-nitroimidazole-based ligands” (Journal of Biological Inorganic Chemistry, 2023)
≈ marks a conversion by molar mass, not a printed value.

Assays:
[1] = test system: Euryhaliotrema perezponcei; set-up: method as in doi:10.1016/j.poly.2013.09.030, PMID 28917638; conditions: in vitro and in vivo assays; cited from earlier work
ct-DNA [2] = assay: Competitive displacement of ethidium bromide from DNA (fluorescence); format: binding, calf; conditions: EB 75 µM, [DNA]b = 30 µM, compound 0-50 µM, 1 h
Method: (§1) For the UV–Vis, fluorescence and circular dichroism assays the concentration of ct-DNA was determined on a Varian Cary 100 Scan spectrophotometer from the absorption at 260 nm and the corresponding molar absorptivity of 6600 M^−1 cm^−1 (nucleobase concentration). The stock solutions of the coordination compounds and the free ligands were prepared in cacodylate/NaCl buffer (1 mM cacodylic acid and 20 mM sodium chloride) at pH 7.25. The final samples contained a DMSO concentration of 0.2%.
(§2) Emission intensity of the dyes DNA-intercalator ethidium bromide, EB (λexc = 514 nm) and the minor-groove binder Hoechst 33,258 (λexc = 350 nm) was measured on iHR320 HORIBA JOBIN YVON spectrofluorometer. The samples contained 15 µM (in base pairs) of ct-DNA and 75 µM of EB […] in cacodylate/NaCl buffer. The respective dye was incubated for 30 min with ct-DNA to allow its binding to the biomolecule. Subsequently, increasing amounts of coordination compounds (0–50 µM) were added up to a final volume of 2 mL, and the samples were incubated for 1 h at 37 °C. The fluorescence spectra of all samples were recorded at room temperature. The affinity of the compounds for ct-DNA compared to EB was evaluated through the Stern–Volmer quenching constant Ksv, from Eq. 3:3 I0/I=1+Ksvcompound where I0 and I are the emission intensities in absence and the presence of the compound, respectively.
With the aim to corroborate the binding mode of the coordination compounds with DNA competitive displacement assays were carried out by florescence spectroscopy. The fluorescence of ethidium bromide (EB) increases when it intercalates between DNA base pairs, forming an EB-DNA adduct. Competitive binding assays will lead to a decrease of the fluorescence intensity (λexc = 514 nm; λem = 610 nm) if the interacting molecule is capable of displacing EB from the DNA helix. Solutions containing constant concentrations of DNA (30 µM) and EB (75 µM) were incubated for 30 min. Then the coordination compounds to be tested were added in a concentration in the range of 0–50 µM (corresponding to [complex]/[DNA] ratios between = 0 and 3.3), and fluorescence spectra were recorded after 1 h of incubation.

ct-DNA [3] = assay: Circular dichroism of ct-DNA; format: binding, calf; conditions: [DNA]b = 50 µM, [complex]/[DNA] 0-2, 1 h 37 °C
Method: as §1
Circular dichroism (CD) spectra were recorded using a JASCO-815 spectropolarimeter, equipped with xenon-arc lamp of 450 W. The sample compartment was air-purged with N2 before use. For the measurements, a quartz cuvette with an optical path of 5 mm was used. A solution of 25 µM (in base pairs) of ct-DNA in cacodylate/NaCl buffer was incubated for 1 h at 37 °C with increasing amounts of coordination compounds (0–50 µM). The CD spectra were recorded at room temperature.
The interaction of small molecules with DNA can modify these CD signals depending on the type of binding. Intercalative interactions increase the intensity of the signals, as the result of an increase of the stability of the B conformation, whereas groove binding or covalent interactions tend to decrease the intensity of these signals, which are moreover displaced. The CD spectra for both ligands and their copper(II) and zinc(II) complexes were obtained at constant concentration of ct-DNA, increasing the complex concentration up to two equivalents ([complex]/[DNA] ratios of 0, 0.2, 0.4, 1, 2) with respect to the nucleobases concentration ([DNA]b = 50 µM).

pBR322 plasmid DNA = assay: Agarose gel electrophoresis, DNA cleavage; format: biochemical
Method: Electrophoresis assays were performed in 1.5% agarose gel and 1× TBE buffer using the DNA plasmid pBR322. The plasmid (15 µM base pairs) was incubated with 10 and 50 μM concentrations of the coordination compounds for 1 h at 37 °C in presence and absence of ascorbic acid (50 μM) as reducing agent and hydrogen peroxide (500 µM) as ROS generator in a final volume of 20 μL. The DNA-cleaving compound [Cu(phen)2(H2O)](NO3)2 was used as reference. The samples were loaded into the gel with 4 μL of a loading buffer (30% glycerol, 5 mM xylene cyanol), and electrophoresis was performed in 1× TBE at 100 V for 1 h in a Bio-Rad horizontal tank. Subsequently, the gel was stained with SYBR™ Safe overnight and images were acquired with a Gel Doc EZ Imager instrument (Bio-Rad).
Distinct forms of pBR322 plasmid DNA are commonly observed by gel electrophoresis due to the conformational changes that present distinct electrophoretic mobility: (1) supercoiled DNA (Form I) that migrates faster on the gel, (2) circular nicked (Form II), obtained from a one-strand scission, has a slower migration through the gel and (3) linear form (Form III) is generated when both strands are cleaved and migrates between forms I and II [54]. The interaction of the free ligands and their copper(II) and zinc(II) coordination compounds with pBR322 was investigated in presence of H2Asc (50 μM) as reducing agent and H2O2 (500 μM) as ROS generator. Solutions of 10 and 50 µM of the coordination compounds were incubated with the DNA at 37 °C for 1 h.

ct-DNA [4] = assay: Competitive displacement of Hoechst 33258 from DNA (fluorescence); format: binding, calf; conditions: Hoechst 33258 1.9 µM, [DNA]b = 30 µM, compound 0-50 µM, 1 h
Method: as §1, §2
Competitive binding assays were carried out with Hoechst 33,258. This dye binds to B-DNA, especially those with an AT-rich sequence giving a fluorescent signal at 458 nm when excited at 350 nm. As for to the EB assays, DNA (30 µM) was incubated for 30 min with Hoechst 33,258 (1.9 µM) and increasing amounts of the coordination compounds were subsequently added. In all cases, fluorescence quenching was observed (Fig. 9). As previously, the Ksv constants were determined (Fig. 9c and Table 4). The copper(II) compounds show Ksv values in the […] range (Table 4), indicating a groove binding behavior. For the zinc(II) compounds, the Ksv values are two orders of magnitude lower indicating weaker interactions, must likely of electrostatic nature.

[5] = Distribution coefficient LogD7.4, shake-flask 1-octanol/MOPS buffer; format: physicochemical; conditions: 25 °C
Method: Solutions between 100 and 10 µM of the free ligands (cenz and onz) and the coordination compounds 3–10 were prepared in a MOPS buffer pH 7.4 as the aqueous phase and in 1-octanol as the organic phase. The absorption at 320 nm and 310 nm was determined for the aqueous and organic phase respectively by electronic spectroscopy (UV–Vis). Through a linear regression (concentration vs. absorption) the molar extinction coefficient of each compound in both phases was determined (Table 3). The lipophilicity was calculated in the 1-octanol/water system from the shake flask method using Eq. 1 [39]:1 […] where, Co is the final concentration in the organic phase and Cw is the final concentration in the aqueous phase (MOPS buffer at 10^–2 M pH 7.4). Both phases were presaturated with 50 µM solutions of the free ligands or 500 µM of each coordination compound and their UV spectrum was recorded. Both phases were combined and kept stirring for 3 h at 25 °C and in the absence of light. Subsequently, the mixture was centrifuged at 400g and the concentration in both phases was determined by UV–Vis spectroscopy using the Beer-Lambert law. The assays were performed in triplicate.
The T gondii parasite is an apicomplex organism; it requires a host cell to live, so it is important that the drugs used against the parasite have easy access to the cell. The lipophilicity of a compound is an important physicochemical property to determine its ability to permeate the biological membrane through passive diffusion; which usually is measured from the distribution coefficient logD7.4 = log(Co/Cw), in n-octanol/water. The shake-flask method was used to determine the LogD7.4 values from the molar extinction coefficients of the coordination compounds and the ligands in the two solvents (Table 3).

[6] = test system: RH tachyzoites of Toxoplasma gondii; assay: Viability of extracellular tachyzoites, Sytox Green exclusion test; format: cell-based; conditions: 1 h
Method: RH tachyzoites of Toxoplasma gondii were extracted in PBS solution at pH 7.4 from intraperitoneal fluid of infected CD1 mice on the third day of infection and centrifuged for ten minutes at 260g. Purified parasites were used within 4 h after their isolation.
The viability of the parasites was determined from staining with Sytox Green® fluorescent dye exclusion test. Purified tachyzoites (1 × 10^6) were incubated for one hour at room temperature with PBS solutions of the coordination compounds or the free ligands at concentrations of 40, 20, 10, 5, and 2.5 µM (0.1% DMSO), in a volume final of 1 mL. After the incubation time, the samples were centrifuged for 10 min at 250g, the medium was removed and 20 µL of Sytox Green® was added after 15 min of incubation for differentiate dead parasites in a Neubauer chamber. The assays were performed in triplicate. The half maximal inhibitory concentration (IC50) was calculated by Boltzmann regression analysis and expressed as mean ± standard error of three replicates. Based on the results the tachyzoites were incubated under the same conditions with the coordination compounds [Cu(onz)2Cl2] and [Cu(onz)2Br2] at their respective IC50 values, Sytox Green® was then added, and they were observed by fluorescence microscopy. Sulfadiazine was used as positive control.
Viability assays were performed against tachyzoites of Toxoplasma gondii. The RH strain was used to evaluate the effect of different concentrations (namely, 2.5, 5, 10, 20 and 40 µM) of the coordination compounds and the free 5-nitroimidazole against the tachyzoites. The evaluation were performed in PBS buffer (pH 7.4) with Sytox Green® exclusion test, which allows differentiating dead from live tachyzoites, since the intact cell membrane of alive ones is not stained.

Entamoeba histolytica = conditions: cited from earlier work
[7] = intraperitoneal injection; cited from earlier work
[8] = compound 10 (mM in the source), + H2Asc
[9] = compound 10 (mM in the source), + H2O2
[10] = compound 10 (mM in the source), no additive
[11] = compound 50 (mM in the source), + H2Asc
[12] = compound 50 (mM in the source), + H2Asc + H2O2
[13] = compound 50 (mM in the source), + H2O2
[14] = compound 50 (mM in the source), no additive

Row | SMILES | effect on CD spectrum of ct-DNA (bands at 275 and 245 nm) (ct-DNA [3]) | %Damage (pBR322 plasmid DNA; [11]) [%] | %Nicked (pBR322 plasmid DNA; [11]) [%] | %Supercoiled (pBR322 plasmid DNA; [11]) [%] | %Damage (pBR322 plasmid DNA; [12]) [%] | %Damage (pBR322 plasmid DNA; [13]) [%] | %Nicked (pBR322 plasmid DNA; [13]) [%] | %Supercoiled (pBR322 plasmid DNA; [13]) [%] | %Damage (pBR322 plasmid DNA; [14]) [%] | %Nicked (pBR322 plasmid DNA; [14]) [%] | %Supercoiled (pBR322 plasmid DNA; [14]) [%] | other results
1 | CCS(=O)(=O)CCn1c([N+](=O)[O-])cnc1C.CCS(=O)(=O)CCn1c([N+](=O)[O-])cnc1C.[Br][Cu][Br] [[Cu(tnz)2Br2]] | – | – | – | – | – | – | – | – | – | – | – | parasite mortality percentage [1]: 100%
2 | Cc1n(CC(O)CCl)c([N+](=O)[O-])c[n+]1[Zn-2]([Br])([Br])[n+]1cc([N+](=O)[O-])n(CC(O)CCl)c1C (centres unmarked) [[Zn(onz)2Br2]] | spectra changes are minor | 98.2 | 98.80 | 1.80 | 100.00 | 44.80 | 29.10 | 55.20 | 11.9 | 0.40 | 88.10 | Ethidium bromide Ksv (ct-DNA [2]): 2600 M⁻¹; %Damage (pBR322 plasmid DNA; [8]): 87.3%; %Nicked (pBR322 plasmid DNA; [8]): 81.80%; %Supercoiled (pBR322 plasmid DNA; [8]): 12.70%; %Damage (pBR322 plasmid DNA; compound 10 (mM in the source), + H2Asc + H2O2): 100.00%; %Damage (pBR322 plasmid DNA; [9]): 14.30%; %Nicked (pBR322 plasmid DNA; [9]): 4.70%; %Supercoiled (pBR322 plasmid DNA; [9]): 85.70%; %Damage (pBR322 plasmid DNA; [10]): 3.5%; %Nicked (pBR322 plasmid DNA; [10]): 2.60%; %Supercoiled (pBR322 plasmid DNA; [10]): 96.50%; Hoechst 33258 Ksv (ct-DNA [4]): 48000 M⁻¹; LogD7.4 ([5]; octanol/water (MOPS buffer 10^–2 M), 3 h): 0.95
3 | Cc1ncc([N+](=O)[O-])n1CC(O)CCl (centres unmarked) [onz, 1-(3-chloro-2-hydroxypropyl)-2-methyl-5-nitroimidazole, reference compound] | did not affect the DNA structure | 11.80 | 5.60 | 88.20 | 8.80 | 10.70 | 8.90 | 89.30 | 9.80 | 7.60 | 90.20 | activity against T. gondii ([6]; 2.5-40 µM, PBS): did not show activity; %Nicked (pBR322 plasmid DNA; [12]): 4.30%; %Supercoiled (pBR322 plasmid DNA; [12]): 91.20%; DNA cleavage (in words) (pBR322 plasmid DNA; with and without H2Asc / H2O2): did not provoke any significant DNA cleavage; MIC (Entamoeba histolytica): 12.5 µM (≈ 2.75 µg/mL); logD at 3 h ([5]; 1-octanol/MOPS buffer, pH 7.4, octanol/water (MOPS buffer 10^–2 M)): 0.64
4 | Nc1ccc(S(=O)(=O)Nc2ncccn2)cc1 [sulfadiazine, reference compound] | – | – | – | – | – | – | – | – | – | – | – | IC50 ([6]; Toxoplasma gondii, PBS pH 7.4, mean ± standard error of three replicates, read-out: IC50): > 1600 µM; LD50 [7]: 180 mg/kg
